Assay results published in patent publication US6809106B1, “Quinoline derivatives as inhibitors of MEK enzymes” (AstraZeneca AB, priority 1999, dated 2004).

Experiments:
[1] = tested on: HT29 human colon tumour cells; assay: Cell proliferation assays; type: cell-based; conditions: 72 hours incubation
Protocol: Cell Proliferation Assays
Cells were seeded into multi-well plates at 20 000-40 000 cells/ml in growth medium containing 5% FCS and incubated overnight at 37° C. The compounds were prepared in fresh medium at an appropriate concentration and added to the wells containing the cells. These were then incubated for a further 72 hours. Cells were then either removed from the wells by incubating with trypsin/EDTA and counted using a Coulter counter, or treated with KIT/PMS in PBSA and optical densities read at […].

[2] = target: human p45MEK1 (GST-MEK) (Homo sapiens, UniProt Q02750); assay: Assay for inhibitors of the MAP kinase pathway (coupled GST-MEK/GST-MAPK/MBP 33P assay); type: biochemical; conditions: GST-MEK activated by c-raf, MBP substrate, 8.33 μM ATP
Protocol: Assay for Inhibitors of the MAP Kinase Pathway
To evaluate inhibitors of the MAPK pathway a coupled assay was carried out which measures phosphorylation of serine/threonine residues present in the substrate in the presence or absence of inhibitor. Recombinant glutathione S-transferase fusion protein containing human p45MEK1 (GST-MEK) was activated by c-raf (Sf9 insect cell lysate from triple baculoviral infection with c-raf/ras/lck) and used for the assay. Active GST-MEK was first used to activate a recombinant glutathione S-transferase fusion protein containing p44MAP kinase (GST-MAPK) in the presence of ATP and Mg^2+ for 60min at room temperature in the presence or absence of potential inhibitors. The activated GST-MAPK was then incubated with myelin basic protein (MBP) as substrate for 10 min at room temperature in the presence of ATP, Mg^2+ and ^33P-ATP. The reaction was stopped by addition of 20% v/v phosphoric acid. Incorporation of ^33P into the myelin basic protein was determined by capture of the substrate on a filter mat, washing and counting using scintillation methods. The extent of inhibition was determined by comparison with untreated controls.
The final assay solution contained 10 mM Tris, pH 7.5, 0.05 mM EGTA, 8.33 μM [γ^33P]ATP, 8.33 mM Mg(OAc)2, 0.5 mM sodium orthovanadate, 0.05% w/v BSA, 6.5 ng GST-MEK, 1 μg GST-MAPK and 16.5 μg MBP in a reaction volume of […].

Chain of human p45MEK1 (GST-MEK) (Q02750 whole entry): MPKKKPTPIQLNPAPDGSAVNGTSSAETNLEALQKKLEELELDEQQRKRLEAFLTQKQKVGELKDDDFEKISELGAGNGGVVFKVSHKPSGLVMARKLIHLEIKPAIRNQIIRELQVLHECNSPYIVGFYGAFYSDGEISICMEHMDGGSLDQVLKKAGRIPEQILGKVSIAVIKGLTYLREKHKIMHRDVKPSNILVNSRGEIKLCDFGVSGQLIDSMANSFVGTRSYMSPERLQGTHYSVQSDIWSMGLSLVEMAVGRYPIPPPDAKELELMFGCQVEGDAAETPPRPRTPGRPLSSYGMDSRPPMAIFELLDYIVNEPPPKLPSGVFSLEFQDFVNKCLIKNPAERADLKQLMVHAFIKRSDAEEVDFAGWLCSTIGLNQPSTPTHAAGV

Compound | IC50 [1] [nM] | IC50 [2] [nM]
COc1cc2ncc(Cl)c(Nc3ccc(Oc4ccccc4OC)cc3)c2cc1OC [Compound 1, 4-(2-methoxyphenoxy)-anilino-3-chloro-6,7-dimethoxyquinoline] | 3400 | 
COc1cc2ncc(Cl)c(Nc3ccc(Cl)c(Cl)c3)c2cc1OC [Compound 5] |  | 1530
